In paper PMC8946265, “Withanolide-Type Steroids from Physalis nicandroides Inhibit HIV Transcription” (Journal of Natural Products, 2021):
Like-named read-outs stand apart in the source and are kept apart here.

Key:
[1] = tested on: X4 recombinant HIV (NL4.3-Ren); conditions: for SI: selectivity index (CC50/IC50): CC50 MT-2 / IC50 HIV NL4.3-Ren
in vitro = conditions: human
[2] = tested on: X4 recombinant HIV (NL4.3-Ren); test: microbe, parasite or virus in culture
[3] = tested on: HIV transcription (pNL4.3-Luc); test: cells; assay type: cell-based, HIV-1; conditions: for IC50: Human immunodeficiency virus 1, MT2, 48 h, read-out: IC50 viral transcription; for SI HIV transcription/HIV infection (specificity index): IC50 transcription / IC50 HIV infection; for effect on HIV transcription (in words): MT-2 cells transfected with NL4.3-Luc, 0.7 to 100 μM
[4] = tested on: VSV pseudotyped HIV (VSV-HIV)
[5] = tested on: VSV pseudotyped HIV (VSV-HIV); test: microbe, parasite or virus in culture; conditions: Vesicular stomatitis virus, MT2, 48 h, read-out: IC50 VSV-HIV
[6] = Human immunodeficiency virus 1, MT2, 48 h, read-out: IC50 (CI95%; R^2) anti-HIV activity, MT-2 cells, NL4.3-Ren, 48 h, mean of at least three independent experiments
[7] = Human immunodeficiency virus 1, MT2, read-out: IC50 HIV, MT-2 cells, HIV infection, values repeated from Table 3 (more decimals)

Row | Molecule | SI: selectivity index (CC50/IC50) [1] | CC50 (in vitro) [µM] | IC50 [2, 6] [µM] | also measured
1 | C=C1C(=O)O[C@@H]([C@@H](C)[C@]2(O)C[C@H](OC(C)=O)[C@]3(O)[C@@H]4C[C@H]5O[C@]56CC=CC(=O)[C@]6(C)[C@H]4CC[C@@]32C)C[C@]1(C)O [Compound 2, 15α-acetoxy-5β,6β-epoxy-14β,17β,24α-trihydroxy-1-oxo-witha-2,25(27)-dien-26,22-olide] | >5.3 | > 100 | 18.7 | 
2 | CC(=O)O[C@H]1[C@@H]2O[C@]2([C@H](C)[C@H]2CC(C)=C(C)C(=O)O2)[C@@]2(C)CC[C@H]3[C@@H](C[C@@H](O)[C@]45C=C[C@H](OO4)C(=O)[C@]35C)[C@@]12O [Compound 4, 15α-acetoxy-16β,17β-epoxy-6β,14β-dihydroxy-1-oxo-2α,5α-dioxy-witha-3,24-dien-26,22-olide] | >1.4 | > 100 | 72.7 | 
3 | C[C@H](Cn1cnc2c(N)ncnc21)OCP(=O)(O)O [TFV, tenofovir, reference compound] |  | > 100 | 1.7 | IC50 [2, 7]: 1.69 µM
4 | CC(=O)O[C@H]1[C@@H]2O[C@]2([C@H](C)[C@H]2CC(C)=C(C)C(=O)O2)[C@@]2(C)CC[C@H]3[C@@H](C[C@H]4O[C@]45[C@@H](O)C=CC(=O)[C@]35C)[C@@]12O [Compound 13, physagulin F] | 15.5 | 15.2 | < 2 | IC50 [3]: 1.14 µM; SI HIV transcription/HIV infection (specificity index) [3]: 1.13; effect on HIV transcription (in words) [3]: inhibited HIV transcription; SI VSV-HIV/HIV (specificity index) [4]: 2.66; IC50 [2, 7]: 1.01 µM; IC50 [5]: 2.67 µM
5 | CC(=O)O[C@H]1C=C([C@H](C)[C@H]2CC(C)=C(C)C(=O)O2)[C@@]2(C)CC[C@H]3[C@@H](C[C@@H](O)[C@@]4(Cl)CC=CC(=O)[C@]34C)[C@]12O [Compound 9, physagulin B] | >11.2 | > 100 | 8.9 | 
6 | CC(=O)O[C@H]1C[C@@](O)([C@H](C)[C@H]2CC(C)=C(C)C(=O)O2)[C@@]2(C)CC[C@H]3[C@@H](C[C@H]4O[C@]45CC=CC(=O)[C@]35C)[C@@]12O [Compound 5, physagulide I] |  | > 100 | > 100 | 
7 | CC(=O)O[C@H]1C[C@H]([C@H](C)[C@H]2CC(C)=C(C)C(=O)O2)[C@@]2(C)CC[C@H]3[C@@H](C[C@@H](O)[C@@]4(O)CC=CC(=O)[C@]34C)[C@@]12O [Compound 10, physagulin J] | >3.1 | > 100 | 32.7 | 
8 | CC(=O)O[C@H]1C=C([C@H](C)[C@H]2CC(C)=C(C)C(=O)O2)[C@@]2(C)CC[C@H]3[C@@H](C[C@@H](O)[C@]45C=C[C@H](OO4)C(=O)[C@]35C)[C@@]12O [Compound 3, 15α-acetoxy-6β,14β-dihydroxy-1-oxo-2α,5α-dioxy-witha-3,16,24-trien-26,22-olide] | >1.3 | > 100 | 76.1 | 
9 | C=C1C(=O)O[C@@H]([C@@H](C)[C@]2(O)C[C@H](OC(C)=O)[C@]3(O)[C@@H]4C[C@H]5O[C@]56CC=CC(=O)[C@]6(C)[C@H]4CC[C@@]32C)C[C@@]1(C)O [Compound 1, 15α-acetoxy-5β,6β-epoxy-14β,17β,24β-trihydroxy-1-oxo-witha-2,25(27)-dien-26,22-olide] | >8 | > 100 | 12.4 | 
10 | CC(=O)O[C@H]1C=C([C@H](C)[C@H]2CC(C)=C(C)C(=O)O2)[C@@]2(C)CC[C@H]3[C@@H](C[C@H]4O[C@]45CC=CC(=O)[C@]35C)[C@@]12O [Compound 7, physagulin A] |  | 16 | < 2 | IC50 [3]: 1.97 µM; SI HIV transcription/HIV infection (specificity index) [3]: 1.02; effect on HIV transcription (in words) [3]: inhibited HIV transcription; fold more potent (antiviral effect) than 17β-hydroxy-withanolide 5 ([1]; IC50 ratio versus compound 5): > 50 fold; fold more potency (anti-HIV) than dihydroxy compound 8 ([1]; IC50 ratio versus compound 8): 35.7 fold; fold more potency (anti-HIV) than halohydrin 9 ([1]; IC50 ratio versus compound 9): 4.7 fold; SI VSV-HIV/HIV (specificity index) [4]: 1.64; IC50 [2, 7]: 1.94 µM; IC50 [5]: 3.2 µM
11 | enfuvirtide |  |  |  | IC50 ([1]; read-out: IC50 HIV, MT-2 cells, HIV infection, values repeated from Table 3 (more decimals)): 0.015 µM; activity as VSV-HIV inhibitor (in words) [4]: not active; IC50 ([4]; VSV pseudotyped (VSV-, 48 h)): > 1 µM; SI VSV-HIV/HIV (specificity index) ([4]; VSV pseudotyped (VSV-, 48 h)): >66.67
12 | CC(=O)O[C@H]1[C@@H]2O[C@]2([C@H](C)[C@H]2CC(C)=C(C)C(=O)O2)[C@@]2(C)CC[C@H]3[C@@H](C[C@@H](O)[C@@]4(O)CC=CC(=O)[C@]34C)[C@@]12O [Compound 12, physagulin C] | >4.7 | > 100 | 21.1 | 
13 | CC(=O)O[C@H]1C=C([C@H](C)[C@H]2CC(C)=C(C)C(=O)O2)[C@@]2(C)CC[C@H]3[C@@H](C[C@@H](O)[C@@]4(O)CC=CC(=O)[C@]34C)[C@]12O [Compound 8, withaminimin] | >1.5 | > 100 | 67.9 | 
